From the NIST ThermoML archive (doi:10.1021/je025534p)
± gives the expanded uncertainty stated by the source.

Settings: Liquid, Ebulliometric method (Recirculating still)

vapor or sublimation pressure (298 K) | vapor or sublimation pressure (303 K) | vapor or sublimation pressure (308 K) | vapor or sublimation pressure (313 K) | vapor or sublimation pressure (318 K) | vapor or sublimation pressure (323 K) | vapor or sublimation pressure (328 K) | vapor or sublimation pressure (333 K) | vapor or sublimation pressure (338 K) | vapor or sublimation pressure (343 K) | vapor or sublimation pressure (348 K) | vapor or sublimation pressure (353 K) | vapor or sublimation pressure (356 K) | vapor or sublimation pressure (373 K) | vapor or sublimation pressure (358 K) | vapor or sublimation pressure (363 K) | vapor or sublimation pressure (366 K) | Compound
11.29 ± 4 kPa | 14.2 ± 4 kPa | 17.72 ± 4 kPa | 21.98 ± 4 kPa | 27.07 ± 4 kPa | 33.15 ± 4 kPa | 40.35 ± 4 kPa | 48.83 ± 4 kPa | 58.78 ± 4 kPa | 70.39 ± 4 kPa | 83.87 ± 4 kPa | 99.46 ± 4 kPa | 99 ± 9.9 kPa | – | – | – | – | CC1OCCO1 [2-methyl-1,3-dioxolane]
– | – | – | – | – | – | – | – | – | – | – | – | – | 99 ± 9.9 kPa | – | – | – | O [water]
8.89 ± 4 kPa | 11.17 ± 4 kPa | 13.9 ± 4 kPa | 17.17 ± 4 kPa | 21.04 ± 4 kPa | 25.62 ± 4 kPa | 30.97 ± 4 kPa | 37.21 ± 4 kPa | 44.43 ± 4 kPa | 52.75 ± 4 kPa | 62.29 ± 4 kPa | 73.16 ± 4 kPa | – | – | 85.51 ± 4 kPa | 99.46 ± 4 kPa | 99 ± 9.9 kPa | CC1COC(C)O1 (centres undefined) [2,4-dimethyl-1,3-dioxolane]
